Bridge positions count the residues as written; N and C are the ends. Square brackets hold non-standard residues; d marks the D form. Triazole bridges read from a SMILES are 1,4-linked. Peptide text beside a SMILES is read from it. * marks the point of attachment. Orn(N3) = [N-]=[N+]=NCCC[C@H](N)C(=O)O; NMeY = CN[C@@H](Cc1ccc(O)cc1)C(=O)O; X1 = O=C(O)C[C@@H](N*)c1ccc(O)cc1; Cit = NC(=O)NCCC[C@H](N)C(=O)O; Pra = C#CC[C@H](N)C(=O)O; Sar = CNCC(=O)O
Assays:
[1] = target: human α9α10 nAChR (Homo sapiens, UniProt Q9GZZ6+Q9UGM1); experiment: cell-based; format: cell-based
[2] = target: rat α9α10 nAChR (Rattus norvegicus, UniProt P43144+Q9JLB5); experiment: cell-based; format: cell-based; details: for IC50: α9α10 nAChR IC50 (nM) Rat
rat α9α10 nAChR, sequence (P43144 26-479 limits assumed): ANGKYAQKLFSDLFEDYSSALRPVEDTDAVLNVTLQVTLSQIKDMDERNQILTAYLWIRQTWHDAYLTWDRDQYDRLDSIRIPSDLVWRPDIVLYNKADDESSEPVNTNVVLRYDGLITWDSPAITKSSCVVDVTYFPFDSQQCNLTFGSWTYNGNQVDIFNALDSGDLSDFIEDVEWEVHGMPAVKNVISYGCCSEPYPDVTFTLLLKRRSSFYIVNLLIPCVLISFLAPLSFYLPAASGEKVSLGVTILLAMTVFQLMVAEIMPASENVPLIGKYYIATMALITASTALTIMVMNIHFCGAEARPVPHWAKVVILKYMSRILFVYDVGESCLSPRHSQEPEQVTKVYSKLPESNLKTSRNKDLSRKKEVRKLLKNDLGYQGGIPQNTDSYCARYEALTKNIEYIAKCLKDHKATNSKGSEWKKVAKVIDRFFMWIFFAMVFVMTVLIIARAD
rat α9α10 nAChR, sequence (Q9JLB5 25-447 limits assumed): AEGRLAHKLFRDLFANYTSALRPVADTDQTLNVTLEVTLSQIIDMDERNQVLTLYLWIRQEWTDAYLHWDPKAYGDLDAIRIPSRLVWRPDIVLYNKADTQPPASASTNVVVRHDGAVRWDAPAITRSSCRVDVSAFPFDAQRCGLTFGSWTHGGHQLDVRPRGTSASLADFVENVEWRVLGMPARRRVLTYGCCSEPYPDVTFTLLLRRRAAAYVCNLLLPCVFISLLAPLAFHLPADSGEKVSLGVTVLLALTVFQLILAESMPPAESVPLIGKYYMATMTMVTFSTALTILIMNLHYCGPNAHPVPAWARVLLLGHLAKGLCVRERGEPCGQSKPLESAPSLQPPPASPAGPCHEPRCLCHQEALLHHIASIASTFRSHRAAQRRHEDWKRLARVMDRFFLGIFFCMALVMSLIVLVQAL

human α9α10 nAChR, sequence (Q9UGM1 26-479 limits assumed): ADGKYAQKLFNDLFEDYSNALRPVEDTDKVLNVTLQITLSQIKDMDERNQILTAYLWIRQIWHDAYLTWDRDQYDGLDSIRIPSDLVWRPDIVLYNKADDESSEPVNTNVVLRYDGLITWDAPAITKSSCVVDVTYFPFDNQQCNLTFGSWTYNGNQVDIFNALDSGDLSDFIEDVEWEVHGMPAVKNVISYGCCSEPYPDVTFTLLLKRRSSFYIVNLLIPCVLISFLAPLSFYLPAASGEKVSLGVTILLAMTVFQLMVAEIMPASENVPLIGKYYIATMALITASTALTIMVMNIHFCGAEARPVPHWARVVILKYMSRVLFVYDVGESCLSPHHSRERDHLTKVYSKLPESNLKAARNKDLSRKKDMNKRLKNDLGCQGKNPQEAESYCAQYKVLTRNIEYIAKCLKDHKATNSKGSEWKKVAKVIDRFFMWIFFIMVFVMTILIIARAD
human α9α10 nAChR, sequence (Q9GZZ6 25-450 limits assumed): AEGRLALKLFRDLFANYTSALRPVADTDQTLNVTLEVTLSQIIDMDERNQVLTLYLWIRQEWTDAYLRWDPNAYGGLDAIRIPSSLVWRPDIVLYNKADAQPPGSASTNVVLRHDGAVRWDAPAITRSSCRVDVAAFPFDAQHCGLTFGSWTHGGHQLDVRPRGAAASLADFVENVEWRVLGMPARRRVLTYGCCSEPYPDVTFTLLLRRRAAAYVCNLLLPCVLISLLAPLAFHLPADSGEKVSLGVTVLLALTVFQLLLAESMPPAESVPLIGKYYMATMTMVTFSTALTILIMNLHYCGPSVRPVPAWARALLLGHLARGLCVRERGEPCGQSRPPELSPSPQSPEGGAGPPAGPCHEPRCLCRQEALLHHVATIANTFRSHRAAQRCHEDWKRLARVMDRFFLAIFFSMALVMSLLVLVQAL

Structure (SMILES) | IC50 [1] [nM] | IC50 [2] [nM] | Loss of activity on the human channel on deletion of amino acid 13 (1a vs 1q) [1] | Loss in activity on the rat channel on deletion of amino acid 13 (1a vs 1q) [2]
C[C@@H](O)[C@@H]1NC(=O)[C@@H]2CCCc3cn(nn3)C[C@@H](C(=O)N[C@@H](Cc3ccc(O)cc3)C(=O)O)NC(=O)[C@H](CCC(N)=O)NC(=O)[C@H](Cc3c[nH]c4ccccc34)NC(=O)[C@H](CCCNC(N)=O)NC(=O)[C@H](CSSC[C@H](NC(=O)CN)C(=O)N2)NC(=O)[C@H](CCCNC(=N)N)NC(=O)[C@@H]2CCCN2C(=O)[C@H](CC(=O)O)NC1=O [Ij, L-tyrosine, glycyl-L-cysteinyl-(2S)-2-aminopentanoyl-L-alanyl-L-threonyl-L-α-aspartyl-L-prolyl-L-arginyl-L-cysteinyl-N5-(aminocarbonyl)-L-ornithyl-L-3-iodotyrosyl-L-glutaminyl-L-alanyl-cyclic (2→8)-disulfide-cyclic 3^5,12^3-(1H-1,2,3-triazole-4,1-diyl)] | 152 ± 71 | 69 ± 8.5 | – | –
C[C@@H](O)[C@@H]1NC(=O)[C@@H]2Cn3cc(nn3)CCC[C@@H](C(=O)N[C@@H](Cc3ccc(O)cc3)C(=O)O)NC(=O)[C@H](CCC(N)=O)NC(=O)[C@H](Cc3c[nH]c4ccccc34)NC(=O)[C@H](CCCNC(N)=O)NC(=O)[C@H](CSSC[C@H](NC(=O)CN)C(=O)N2)NC(=O)[C@H](CCCNC(=N)N)NC(=O)[C@@H]2CCCN2C(=O)[C@H](CC(=O)O)NC1=O [Ik, L-tyrosine, glycyl-L-cysteinyl-L-alanyl-L-threonyl-L-α-aspartyl-L-prolyl-L-arginyl-L-cysteinyl-N5-(aminocarbonyl)-L-ornithyl-L-tryptophyl-L-glutaminyl-L-(2S)-2-aminopentanoyl-cyclic (2→8)-disulfide-cyclic 3^3,12^5-(1H-1,2,3-triazole-1,4-diyl)] | 16.6 ± 1.1 | 9.5 ± 1.3 | – | –
C[C@@H](O)[C@@H]1NC(=O)[C@@H]2Cc3cn(nn3)CCC[C@@H](C(=O)N[C@@H](Cc3ccc(O)cc3)C(=O)N(C)CC(=O)O)NC(=O)[C@H](CCC(N)=O)NC(=O)[C@H](Cc3c[nH]c4ccccc34)NC(=O)[C@H](CCCNC(N)=O)NC(=O)[C@H](CSSC[C@H](NC(=O)CN)C(=O)N2)NC(=O)[C@H](CCCNC(=N)N)NC(=O)[C@@H]2CCCN2C(=O)[C@H](CC(=O)O)NC1=O [In, glycine, glycyl-L-cysteinyl-L-alanyl-L-threonyl-L-α-aspartyl-L-prolyl-L-arginyl-L-cysteinyl-N5-(aminocarbonyl)-L-ornithyl-L-tryptophyl-L-glutaminyl-L-norvalyl-L-tyrosyl-N-methyl-cyclic (2→8)-disulfide-cyclic 3^3,12^5-(1H-1,2,3-triazole-4,1-diyl)] (H-GC[Pra]TDPRC[Cit]WQ[Orn(N3)]Y[Sar]-OH; disulfide 2-8; triazole 3-12) | 37 ± 15 | ≤ 10 | – | –
C[C@@H](O)[C@@H]1NC(=O)[C@@H]2Cc3cn(nn3)CCC[C@@H](C(=O)N[C@@H](Cc3ccc(O)cc3)C(=O)N[C@H](Cc3ccc(O)cc3)C(=O)O)NC(=O)[C@H](CCC(N)=O)NC(=O)[C@H](Cc3c[nH]c4ccccc34)NC(=O)[C@H](CCCNC(N)=O)NC(=O)[C@H](CSSC[C@H](NC(=O)CN)C(=O)N2)NC(=O)[C@H](CCCNC(=N)N)NC(=O)[C@@H]2CCCN2C(=O)[C@H](CC(=O)O)NC1=O [Io, D-tyrosine, glycyl-L-cysteinyl-L-alanyl-L-threonyl-L-α-aspartyl-L-prolyl-L-arginyl-L-cysteinyl-N5-(aminocarbonyl)-L-ornithyl-L-tryptophyl-L-glutaminyl-L-norvalyl-L-tyrosyl-cyclic (2→8)-disulfide-cyclic 3^3,12^5-(1H-1,2,3-triazole-4,1-diyl)] (H-GC[Pra]TDPRC[Cit]WQ[Orn(N3)]Y[dY]-OH; disulfide 2-8; triazole 3-12) | 59 | ≤ 10 | – | –
C[C@@H](O)[C@@H]1NC(=O)[C@@H]2Cc3cn(nn3)CCC[C@@H](C(=O)N[C@@H](Cc3ccc(O)cc3)C(=O)N(C)[C@@H](Cc3ccc(O)cc3)C(=O)O)NC(=O)[C@H](CCC(N)=O)NC(=O)[C@H](Cc3c[nH]c4ccccc34)NC(=O)[C@H](CCCNC(N)=O)NC(=O)[C@H](CSSC[C@H](NC(=O)CN)C(=O)N2)NC(=O)[C@H](CCCNC(=N)N)NC(=O)[C@@H]2CCCN2C(=O)[C@H](CC(=O)O)NC1=O [Ip, L-tyrosine, glycyl-L-cysteinyl-L-alanyl-L-threonyl-L-α-aspartyl-L-prolyl-L-arginyl-L-cysteinyl-N5-(aminocarbonyl)-L-ornithyl-L-tryptophyl-L-glutaminyl-L-norvalyl-L-tyrosyl-N-methyl-cyclic (2→8)-disulfide-cyclic 3^3,12^5-(1H-1,2,3-triazole-4,1-diyl)] (H-GC[Pra]TDPRC[Cit]WQ[Orn(N3)]Y[NMeY]-OH; disulfide 2-8; triazole 3-12) | 26 ± 1.4 | ≤ 10 | – | –
C[C@@H](O)[C@@H]1NC(=O)[C@@H]2Cc3cn(nn3)CCC[C@@H](C(=O)O)NC(=O)[C@H](CCC(N)=O)NC(=O)[C@H](Cc3c[nH]c4ccccc34)NC(=O)[C@H](CCCNC(N)=O)NC(=O)[C@H](CSSC[C@H](NC(=O)CN)C(=O)N2)NC(=O)[C@H](CCCNC(=N)N)NC(=O)[C@@H]2CCCN2C(=O)[C@H](CC(=O)O)NC1=O [Iq, L-norvaline, glycyl-L-cysteinyl-L-alanyl-L-threonyl-L-α-aspartyl-L-prolyl-L-arginyl-L-cysteinyl-N5-(aminocarbonyl)-L-ornithyl-L-tryptophyl-L-glutaminyl-cyclic (2→8)-disulfide-cyclic 3^3,12^5-(1H-1,2,3-triazole-4,1-diyl)] (H-GC[Pra]TDPRC[Cit]WQ[Orn(N3)]-OH; disulfide 2-8; triazole 3-12) | > 300 | 69 ± 2 | greater than 100 fold | approximately 10 fold
C[C@@H](O)[C@@H]1NC(=O)[C@@H]2Cc3cn(nn3)CCC[C@@H](C(=O)N(C)[C@@H](Cc3ccc(O)cc3)C(=O)O)NC(=O)[C@H](CCC(N)=O)NC(=O)[C@H](Cc3c[nH]c4ccccc34)NC(=O)[C@H](CCCNC(N)=O)NC(=O)[C@H](CSSC[C@H](NC(=O)CN)C(=O)N2)NC(=O)[C@H](CCCNC(=N)N)NC(=O)[C@@H]2CCCN2C(=O)[C@H](CC(=O)O)NC1=O [Ir, L-tyrosine, glycyl-L-cysteinyl-L-alanyl-L-threonyl-L-α-aspartyl-L-prolyl-L-arginyl-L-cysteinyl-N5-(aminocarbonyl)-L-ornithyl-L-tryptophyl-L-glutaminyl-L-norvalyl-N-methyl-cyclic (2→8)-disulfide-cyclic 3^3,12^5-(1H-1,2,3-triazole-4,1-diyl)] (H-GC[Pra]TDPRC[Cit]WQ[Orn(N3)][NMeY]-OH; disulfide 2-8; triazole 3-12) | ~100 | 31 ± 0.7 | – | –
C[C@@H](O)[C@@H]1NC(=O)[C@@H]2Cc3cn(nn3)CCC[C@@H](C(=O)N[C@H](CC(=O)O)c3ccc(O)cc3)NC(=O)[C@H](CCC(N)=O)NC(=O)[C@H](Cc3c[nH]c4ccccc34)NC(=O)[C@H](CCCNC(N)=O)NC(=O)[C@H](CSSC[C@H](NC(=O)CN)C(=O)N2)NC(=O)[C@H](CCCNC(=N)N)NC(=O)[C@@H]2CCCN2C(=O)[C@H](CC(=O)O)NC1=O [Iu, (R)-3-(amino)-3-(4-hydroxyphenyl)propionic acid, glycyl-L-cysteinyl-L-alanyl-L-threonyl-L-α-aspartyl-L-prolyl-L-arginyl-L-cysteinyl-N5-(aminocarbonyl)-L-ornithyl-L-tryptophyl-L-glutaminyl-L-norvalyl-cyclic (2→8)-disulfide-cyclic 3^3,12^5-(1H-1,2,3-triazole-4,1-diyl)] (H-GC[Pra]TDPRC[Cit]WQ[Orn(N3)]-X1; disulfide 2-8; triazole 3-12) | ~100 | < 30 | – | –
